Converted amounts (≈) assume the structure as drawn. Like-named read-outs stand apart in the source and are kept apart here. Positions of bridges follow the written chain, without caps; N, C: chain ends. Non-standard residues stand in square brackets, D forms with d. Residues, ends and D or L forms follow the SMILES beside them. ξ: configuration not given here. *: point of attachment. Pentadecanoyl(3ξ-OH,15-Gua) = N=C(N)NCCCCCCCCCCCCC(O)CC(=O)*; d(aThr) = C[C@@H](O)[C@@H](N)C(=O)O; Thr(3ξ) = CC(O)[C@H](N)C(=O)O
Key:
Assay type in all cases: cell-based
Candida albicans = assay: In vitro antimicrobial activity against Candida albicans; settings: for IC50: Candida albicans; for C. albicans IC50: Table 5, extracts tested at 8-200 μg/mL; for C. albicans MIC (minimum inhibitory concentration): lowest concentration that allows no detectable growth
Protocol: (§1) Fifty organic extracts were prepared from 25 whole broth of four microbial strains (MS1479, MS2379, MS2820, and MS2414), which were fermented in different media for the antimicrobial testing. Note each whole broth culture generated one n-butanol extract from cultural supernatant and one methanol extract from cell pellets.
(§2) The antimicrobial activities of the 50 organic extracts were studied against three fungal pathogens—Candida albicans, Aspergillus fumigatus, and Cryptococcus neoformans—and five bacterial strains-Methicillin-resistant Staphylococcus aureus (MIRSA), Escherichia coli, Pseudomonas aeruginosa, Klebsiella pneumoniae, and Vancomycin-resistant Enterococcus faecium (VRE) (FIG. 2). The test concentrations for all extracts were in the range of 8-200 μg/mL (Table 3).
(§3) The antimicrobial activities of identified fusaricidins were in an in vitro study against several clinically relevant microbes. […] For the in-vitro assays against bacteria, fusaricidins were tested against methicillin-resistant Staphylococcus aureus, vancomycin-resistant Enterococcus faecium, Escherichia coli, and Pseudomonas aeruginosa using four antibacterial drugs methicillin, vancomycin, cefotaxime, and meropenem as controls. […] Fusaricidins were also tested against fungal pathogens Cryptococcus neoformans, Candida albicans, and Aspergillus fumigatus and compared with two antifungal drugs, fluconazole and amphotericin B (Table 13). Moreover, the anti-parasitic activity was also tested against L. donovani and T. brucei (Table 14).

Aspergillus fumigatus = assay: In vitro antimicrobial activity against Aspergillus fumigatus; settings: for A. fumigatus IC50: Table 5, extracts tested at 8-200 μg/mL
Protocol: as §1, §2, §3

Cryptococcus neoformans = assay: In vitro antimicrobial activity against Cryptococcus neoformans; settings: for C. neoformans IC50: Table 5, extracts tested at 8-200 μg/mL
Protocol: as §1, §2
The potent activities against the fungal pathogen C. neoformans and the gram-positive bacteria S. aureus, MRSA, and M. intracellulare were also shown in the crude extracts (FIG. 7).
as §3

[1] = tested on: Methicillin-resistant Staphylococcus aureus (MRSA); assay: In vitro antimicrobial activity against MRSA; settings: for MRS IC50: Table 5, extracts tested at 8-200 μg/mL
Protocol: as §1, §2, §3

Escherichia coli = assay: In vitro antimicrobial activity against Escherichia coli
Protocol: as §1, §2, §3

Pseudomonas aeruginosa = assay: In vitro antimicrobial activity against Pseudomonas aeruginosa
Protocol: as §1, §2, §3

Klebsiella pneumoniae = assay: In vitro antimicrobial activity against Klebsiella pneumoniae; settings: Klebsiella pneumoniae; test conc. 200-8 μg/mL (extracts), 100-4 or 10-0.4 μg/mL (drugs); read-out: K pneumoniae IC50
Protocol: as §1, §2

[2] = tested on: Vancomycin-resistant Enterococcus faecium (VRE); assay: In vitro antimicrobial activity against VRE; settings: for VRE IC50: Table 5, extracts tested at 8-200 μg/mL
Protocol: as §1, §2, §3

[3] = test conc. 200-8 μg/mL (extracts), 100-4 or 10-0.4 μg/mL (drugs), read-out: C. albicans IC50
[4] = Aspergillus fumigatus, test conc. 200-8 μg/mL (extracts), 100-4 or 10-0.4 μg/mL (drugs), read-out: A. fumigatus IC50
[5] = Cryptococcus neoformans, test conc. 200-8 μg/mL (extracts), 100-4 or 10-0.4 μg/mL (drugs), read-out: C. neoformans IC50
[6] = Staphylococcus aureus, MRSA, test conc. 200-8 μg/mL (extracts), 100-4 or 10-0.4 μg/mL (drugs), read-out: MRS IC50
[7] = Escherichia coli, test conc. 200-8 μg/mL (extracts), 100-4 or 10-0.4 μg/mL (drugs), read-out: E. coli IC50
[8] = Pseudomonas aeruginosa, test conc. 200-8 μg/mL (extracts), 100-4 or 10-0.4 μg/mL (drugs), read-out: P. aeruginosa IC50
[9] = test conc. 200-8 μg/mL (extracts), 100-4 or 10-0.4 μg/mL (drugs), read-out: VRE IC50
[10] = Table 12, highest test conc. fusaricidins 20, controls 100 μg/mL
[11] = Table 12, lowest concentration that allows no detectable growth
[12] = Table 13, Methicillin-resistant Staphylococcus aureus ATCC 1708
[13] = Table 13, Escherichia coli ATCC 2452
[14] = Table 13, Pseudomonas aeruginosa ATCC 2108
[15] = Table 13, Vancomycin-resistant Enterococcus faecium ATCC 700221

Compound | IC50 (Cryptococcus neoformans; [5]) [µg/mL] | IC50 [1, 6] [µg/mL] | IC50 (Escherichia coli; [7]) [µg/mL] | IC50 (Pseudomonas aeruginosa; [8]) [µg/mL] | IC50 (Klebsiella pneumoniae) [µg/mL] | VRE IC50 [2] [µg/mL] | IC50 [2, 9] [µg/mL] | C. albicans IC50 (50% growth inhibitory concentration) (Candida albicans; [10]) [µg/mL] | C. albicans MIC (minimum inhibitory concentration) (Candida albicans; Table 12) [µg/mL] | A. fumigatus IC50 (50% growth inhibitory concentration) (Aspergillus fumigatus; [10]) | A. fumigatus MIC (minimum inhibitory concentration) (Aspergillus fumigatus; [11]) | C. neoformans IC50 (50% growth inhibitory concentration) (Cryptococcus neoformans; [10]) [µg/mL] | C. neoformans MIC (minimum inhibitory concentration) (Cryptococcus neoformans; [11]) [µg/mL] | MRSA IC50 (50% growth inhibitory concentration) [1, 12] [µg/mL] | MRSA MIC (minimum inhibitory concentration) [1, 12] [µg/mL] | E. coli IC50 (50% growth inhibitory concentration) (Escherichia coli; [13]) | E. coli MIC (minimum inhibitory concentration) (Escherichia coli; [13]) | P. aeruginosa IC50 (50% growth inhibitory concentration) (Pseudomonas aeruginosa; [14]) | P. aeruginosa MIC (minimum inhibitory concentration) (Pseudomonas aeruginosa; [14]) | VRE IC50 (50% growth inhibitory concentration) [2, 15] [µg/mL] | further results
CO/N=C(\C(=O)N[C@@H]1C(=O)N2C(C(=O)O)=C(COC(C)=O)CS[C@H]12)c1csc(N)n1 [Cefotaxime] | > 100 | 14.8 (≈ 32.5 µM) | 80.2 (≈ 176 µM) | 11.8 (≈ 26 µM) | > 100 | >100 | > 100 |  |  |  |  |  |  |  |  |  |  |  |  |  | IC50 (Candida albicans; [3]): > 100 µg/mL; C. albicans IC50 (Candida albicans): >100 µg/mL; IC50 (Aspergillus fumigatus; [4]): > 100 µg/mL; A. fumigatus IC50 (Aspergillus fumigatus): >100 µg/mL; C. neoformans IC50 (Cryptococcus neoformans): >100 µg/mL; IC50 ([1]; ATCC 1708 / MRSA, Table 13, Methicillin-resistant Staphylococcus aureus ATCC 1708, read-out: MRSA IC50 (50% growth inhibitory concentration)): 15.6 µg/mL (≈ 34.3 µM); MIC ([1]; ATCC 1708 / MRSA, Table 13, Methicillin-resistant Staphylococcus aureus ATCC 1708, read-out: MRSA MIC (minimum inhibitory concentration)): 25 µg/mL (≈ 54.9 µM); IC50 (Escherichia coli; ATCC2452, Table 13, Escherichia coli ATCC 2452, read-out: E. coli IC50 (50% growth inhibitory concentration)): > 100 µg/mL; MIC (Escherichia coli; ATCC2452, Table 13, Escherichia coli ATCC 2452, read-out: E. coli MIC (minimum inhibitory concentration)): > 100 µg/mL; IC50 (Pseudomonas aeruginosa; ATCC2108, Table 13, Pseudomonas aeruginosa ATCC 2108, read-out: P. aeruginosa IC50 (50% growth inhibitory concentration)): 5.3 µg/mL (≈ 11.6 µM); MIC (Pseudomonas aeruginosa; ATCC2108, Table 13, Pseudomonas aeruginosa ATCC 2108, read-out: P. aeruginosa MIC (minimum inhibitory concentration)): 25 µg/mL (≈ 54.9 µM); IC50 ([2]; ATCC 700221 / VRE, Table 13, Vancomycin-resistant Enterococcus faecium ATCC 700221, read-out: VRE IC50 (50% growth inhibitory concentration)): > 100 µg/mL; MIC ([2]; ATCC 700221 / VRE, Table 13, Vancomycin-resistant Enterococcus faecium ATCC 700221, read-out: VRE MIC (minimum inhibitory concentration)): > 100 µg/mL
O=C(O)c1cn(C2CC2)c2cc(N3CCNCC3)c(F)cc2c1=O [Ciprofloxacin] | > 10 | > 10 | < 0.01 | 0.81 (≈ 2.44 µM) | > 10 | >10 | > 10 |  |  |  |  |  |  |  |  |  |  |  |  |  | C. neoformans IC50 (Cryptococcus neoformans): >10 µg/mL; MRS IC50 [1]: >10 µg/mL
OC(Cn1cncn1)(Cn1cncn1)c1ccc(F)cc1F [Fluconazol] |  |  |  |  |  |  |  |  |  |  |  |  |  |  |  |  |  |  |  |  | IC50 (Candida albicans; Table 12, highest test conc. fusaricidins 20, controls 100 μg/mL, read-out: C. albicans IC50 (50% growth inhibitory concentration)): 1 µg/mL (≈ 3.27 µM); IC50 (Aspergillus fumigatus; Aspergillus fumigatus, Table 12, highest test conc. fusaricidins 20, controls 100 μg/mL, read-out: A. fumigatus IC50 (50% growth inhibitory concentration)): > 100 µg/mL; MIC (Aspergillus fumigatus; Aspergillus fumigatus, Table 12, lowest concentration that allows no detectable growth, read-out: A. fumigatus MIC (minimum inhibitory concentration)): > 100 µg/mL; IC50 (Cryptococcus neoformans; Cryptococcus neoformans, Table 12, highest test conc. fusaricidins 20, controls 100 μg/mL, read-out: C. neoformans IC50 (50% growth inhibitory concentration)): 2.5 µg/mL (≈ 8.16 µM); MIC (Cryptococcus neoformans; Cryptococcus neoformans, Table 12, lowest concentration that allows no detectable growth, read-out: C. neoformans MIC (minimum inhibitory concentration)): 6.3 µg/mL (≈ 20.6 µM)
OC(Cn1cncn1)(Cn1cncn1)c1ccc(F)cc1F [Fluconazole] | 2.2 (≈ 7.18 µM) | > 100 | > 100 | > 100 | > 100 | >100 | > 100 |  |  |  |  |  |  |  |  |  |  |  |  |  | IC50 (Candida albicans; [3]): < 0.1 µg/mL; C. albicans IC50 (Candida albicans): <0.1 µg/mL; IC50 (Aspergillus fumigatus; [4]): > 100 µg/mL; A. fumigatus IC50 (Aspergillus fumigatus): >100 µg/mL; MRS IC50 [1]: >100 µg/mL
CC(C)[C@@H]1NC(=O)[C@@H](C(C)C)NC(=O)[C@@H](NC(=O)CC(O)CCCCCCCCCCCCN=C(N)N)[C@@H](C)OC(=O)[C@@H](C)NC(=O)[C@@H](CC(N)=O)NC(=O)[C@@H]([C@@H](C)O)NC1=O (stereo partly drawn) [Fusaricidin A (RRR-8-32Q)] ({Pentadecanoyl(3ξ-OH,15-Gua)}-T[dV]V[d(aThr)][dN][dA]; ester 1-C) |  |  |  |  |  |  |  | 3.5 | 5.0 | 18.5 µg/mL | > 20 µg/mL | 1.2 | 2.5 | 2.1 | 2.5 | >20/>20 μg/mL | >20/>20 μg/mL | >20/>20 μg/mL | >20/>20 μg/mL | 3.7 | VRE MIC (minimum inhibitory concentration) [2, 15]: 5.0 µg/mL
CC(C)[C@@H]1NC(=O)[C@@H](C(C)C)NC(=O)[C@@H](NC(=O)CC(O)CCCCCCCCCCCCN=C(N)N)[C@@H](C)OC(=O)[C@@H](C)NC(=O)[C@@H](CC(N)=O)NC(=O)[C@@H]([C@@H](C)O)NC1=O (stereo partly drawn) [Fusaricidin A (SQ-1-43 A)] ({Pentadecanoyl(3ξ-OH,15-Gua)}-T[dV]V[d(aThr)][dN][dA]; ester 1-C) |  |  |  |  |  |  |  | 5.1 | 10.0 | >20/>20 μg/mL | >20/>20 μg/mL | 0.5 | 1.3 | 2.3 | 2.5 | >20/>20 μg/mL | >20/>20 μg/mL | >20/>20 μg/mL | >20/>20 μg/mL | 3.6 | VRE MIC (minimum inhibitory concentration) [2, 15]: 5.0 µg/mL
CC(C)[C@@H]1NC(=O)[C@@H](C(C)C)NC(=O)[C@@H](NC(=O)CC(O)CCCCCCCCCCCCN=C(N)N)C(C)OC(=O)[C@@H](C)NC(=O)[C@@H](CCC(N)=O)NC(=O)[C@@H]([C@H](C)O)NC1=O (stereo partly drawn) [Fusaricidin B (SQ-1-43B)] ({Pentadecanoyl(3ξ-OH,15-Gua)}-[Thr(3ξ)][dV]V[dT][dQ][dA]; ester 1-C) |  |  |  |  |  |  |  | 9.1 | 10.0 | >20/>20 μg/mL | >20/>20 μg/mL | 1.1 | 2.5 | 4.2 | 5.0 | >20/>20 μg/mL | >20/>20 μg/mL | >20/>20 μg/mL | >20/>20 μg/mL | 8.7 | VRE MIC (minimum inhibitory concentration) [2, 15]: 20.0 µg/mL
Fusaricidin B |  |  |  |  |  |  |  |  |  |  |  |  |  |  |  |  |  |  |  |  | activity against MRSA (in words) [1]: strong activity; activity against VRE (in words) [2]: strong activity
